Data as given in patent US12673052B2, “Combinations for the treatment of cancer” (Exelixis, Inc., priority 2020, dated 2026).
Read-outs that look alike come from different tables or passages of the source.

What was measured:
[1] = Phase 1 first-in-human Study Compound 1-001 (NCT03845166): plasma pharmacokinetics; assay type: in vivo; details: for Cmax / AUC(0-t) / Tmax / half-life / Tmax at 28 days / half-life at 28 days: human, plasma, oral; for AUC(0-t): read-out: AUC0-24
Text: The maximum tolerated dose (MTD) and/or recommended dose (RD) of Compound 1 single-agent therapy and ICI combination therapy will be determined in a Dose-Escalation Stage. The preliminary efficacy of Compound 1 as single agent and as ICI combination therapy will be determined in a Cohort-Expansion Stage with tumor-specific expansion cohorts. As of 14 Dec. 2020, dose escalation of Compound 1 as single agent and in combination therapy with atezolizumab was ongoing: 19 subjects were enrolled in single agent cohorts across six dose levels (PIB: 10, 20 mg; Tablet: 20, 40, 80, 140 mg); three subjects were enrolled in combination therapy with atezolizumab at one dose level (Compound 1 40 mg po qd plus atezolizumab 1200 mg IV q3w). As of 14 Dec. […] The majority of reported adverse events (AEs) were of low-grade severity (Grade 1-2) with five subjects having experienced treatment-related Grade 3 events.
As of 14 Dec. 2020, preliminary Compound 1 clinical PK data are available from 17 subjects in the single agent Dose-Escalation Stage of Study Compound 1-001 (n=3 for 10 mg liquid formulation [PIB]; n=4 for 20 mg liquid formulation [PIB]; n=3 for 20 mg tablet; n =4 for 40 mg tablet; n=3 for 80 mg tablet). In addition, PK of Compound 1 was evaluated when given in the combination with atezolizumab. PK data from a total of 3 subjects enrolled in the Combination Cohort 1 (40 mg Compound 1 qd+1200 mg atezolizumab q3w) are available. A summary of all available PK parameters estimated by non-compartmental approach using individual plasma concentration-time data from a single agent Compound 1 is presented in Table 1. Mean (standard deviation [SD]) plasma Compound 1 concentration-time profiles following a single agent PIB or tablet formulation are illustrated in FIG. 8.
• Blood samples to assess the PK of Compound 1 and its potential metabolites will be obtained during the DLT Evaluation Period: • On the date of first dose of study treatment (prior to study treatment administration) at hourly intervals up to 8 hours postdose on W1D1 and W4D7 (Day 28) • Predose on W1D2 • Predose and 2 hours postdose on W2D1, W3D1, and W4D1 • During the Washout Period on W5D1, W5D2, W5D3, and W5D5 (W5D2, W5D3, and W5D5 PK samples are not required for biomarker cohorts.) • Blood samples for PK analysis will be obtained after the DLT Evaluation and Washout Periods • Predose and 2 hours postdose on W6D1, W9D1, and W13D1.

CYP2C8 = CYP2C8 (Homo sapiens, UniProt P10632); assay: Cytochrome P450 inhibition in vitro; assay type: in vitro ADME
Procedure: (§1) Plasma PK of Compound 1 was characterized in rats and beagle dogs. Toxicokinetic (TK) evaluations of oral Compound 1 were evaluated in repeat-dose studies in rats and dogs. Plasma protein binding was determined in mouse, rat, dog, monkey, and human plasma in vitro. Biotransformation and metabolite profiling of Compound 1 were investigated in vitro using mouse, rat, dog, monkey, and human liver microsomal fractions and hepatocytes and in vivo in rats and dogs. P-glycoprotein (P-gp) and breast cancer resistance protein (BCRP) transporter interaction studies, in vitro experiments evaluating cytochrome P450 (CYP) induction and inhibition by Compound 1, and CYP and glucuronosyltransferase (UGT) substrate specificity studies of Compound 1 were also performed.

CYP2C9 = CYP2C9 (Homo sapiens, UniProt P11712); assay: Cytochrome P450 inhibition in vitro; assay type: in vitro ADME
Procedure: as §1

CYP3A4 = CYP3A4 (Homo sapiens, UniProt P08684); assay: Cytochrome P450 inhibition in vitro; assay type: in vitro ADME
Procedure: as §1

CYP 2B6 = CYP 2B6 (Homo sapiens, UniProt P20813); assay: Cytochrome P450 inhibition in vitro; assay type: in vitro ADME; details: low CYP inhibition potential
Procedure: as §1

CYP1A2 = CYP1A2 (Homo sapiens, UniProt P05177); assay: Cytochrome P450 inhibition in vitro; assay type: in vitro ADME; details: low CYP inhibition potential
Procedure: as §1

CYP2D6 = CYP2D6 (Homo sapiens, UniProt P10635); assay: Cytochrome P450 inhibition in vitro; assay type: in vitro ADME; details: low CYP inhibition potential
Procedure: as §1

CYP2C19 = CYP2C19 (Homo sapiens, UniProt P33261); assay: Cytochrome P450 inhibition in vitro; assay type: in vitro ADME
Procedure: as §1

MC38 tumor = assay: Tumor microvessels by CD31 staining in MC38 tumor-bearing animals; assay type: in vivo, murine
Procedure: MC38 tumor-bearing animals were treated with a range of Compound 1 doses (PO, qd; 3 mg/kg, 10 mg/kg, 30 mg/kg Compound 1) for 5 days. Tumors were analyzed for the presence of tumor microvessels by CD31 staining. FIG. 1A and FIG. 1B compare the tumor microvessels after administration of different doses of Compared 1 with vehicle.

[2] = 10 mg PIB, Steady-State (Day 28), mean ± SD
[3] = 20 mg PIB, Steady-State (Day 28), N = 3, mean ± SD
[4] = 20 mg Tablet, Steady-State (Day 28), mean ± SD
[5] = 40 mg Tablet, Steady-State (Day 28), mean ± SD
[6] = 80 mg Tablet, Steady-State (Day 28), mean ± SD
[7] = 10 mg, 10 mg PIB, First Dose (Day 1), mean ± SD
[8] = 10 mg, 10 mg PIB, Steady-State (Day 28), mean ± SD
[9] = 20 mg, 20 mg PIB, First Dose (Day 1), mean ± SD
[10] = 20 mg, 20 mg PIB, Steady-State (Day 28), N = 3, mean ± SD
[11] = 20 mg, 20 mg Tablet, First Dose (Day 1), mean ± SD
[12] = 20 mg, 20 mg Tablet, Steady-State (Day 28), mean ± SD
[13] = 40 mg, 40 mg Tablet, First Dose (Day 1), mean ± SD
[14] = 40 mg, 40 mg Tablet, Steady-State (Day 28), mean ± SD
[15] = 80 mg, 80 mg Tablet, First Dose (Day 1), mean ± SD
[16] = 80 mg, 80 mg Tablet, Steady-State (Day 28), mean ± SD

Chain of CYP3A4 (P08684 whole entry): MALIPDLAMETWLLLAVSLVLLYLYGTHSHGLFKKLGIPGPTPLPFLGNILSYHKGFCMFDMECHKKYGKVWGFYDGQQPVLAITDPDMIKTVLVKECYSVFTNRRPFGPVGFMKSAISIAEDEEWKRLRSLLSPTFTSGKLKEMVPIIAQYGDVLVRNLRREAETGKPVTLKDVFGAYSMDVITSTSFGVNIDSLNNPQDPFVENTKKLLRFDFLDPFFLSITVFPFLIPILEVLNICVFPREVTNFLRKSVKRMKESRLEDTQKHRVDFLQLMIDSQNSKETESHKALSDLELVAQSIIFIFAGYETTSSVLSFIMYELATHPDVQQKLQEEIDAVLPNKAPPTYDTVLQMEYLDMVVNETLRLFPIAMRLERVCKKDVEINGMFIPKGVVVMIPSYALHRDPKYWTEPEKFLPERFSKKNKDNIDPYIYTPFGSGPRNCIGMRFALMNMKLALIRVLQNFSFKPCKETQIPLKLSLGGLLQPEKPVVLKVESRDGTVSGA
Chain of CYP 2B6 (P20813 whole entry): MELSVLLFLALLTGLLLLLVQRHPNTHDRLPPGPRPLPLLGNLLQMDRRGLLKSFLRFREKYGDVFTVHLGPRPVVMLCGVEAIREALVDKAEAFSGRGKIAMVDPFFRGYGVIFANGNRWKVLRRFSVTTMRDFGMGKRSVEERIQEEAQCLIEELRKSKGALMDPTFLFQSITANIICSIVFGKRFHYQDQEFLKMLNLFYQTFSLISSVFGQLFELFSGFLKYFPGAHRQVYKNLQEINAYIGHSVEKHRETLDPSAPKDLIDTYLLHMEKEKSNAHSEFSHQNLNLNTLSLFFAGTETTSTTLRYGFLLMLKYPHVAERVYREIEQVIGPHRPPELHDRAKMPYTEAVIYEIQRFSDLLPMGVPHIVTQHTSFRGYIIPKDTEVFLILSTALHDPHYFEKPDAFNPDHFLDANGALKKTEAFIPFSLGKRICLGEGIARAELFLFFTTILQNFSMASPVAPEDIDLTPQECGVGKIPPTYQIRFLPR
Chain of CYP2C19 (P33261 whole entry): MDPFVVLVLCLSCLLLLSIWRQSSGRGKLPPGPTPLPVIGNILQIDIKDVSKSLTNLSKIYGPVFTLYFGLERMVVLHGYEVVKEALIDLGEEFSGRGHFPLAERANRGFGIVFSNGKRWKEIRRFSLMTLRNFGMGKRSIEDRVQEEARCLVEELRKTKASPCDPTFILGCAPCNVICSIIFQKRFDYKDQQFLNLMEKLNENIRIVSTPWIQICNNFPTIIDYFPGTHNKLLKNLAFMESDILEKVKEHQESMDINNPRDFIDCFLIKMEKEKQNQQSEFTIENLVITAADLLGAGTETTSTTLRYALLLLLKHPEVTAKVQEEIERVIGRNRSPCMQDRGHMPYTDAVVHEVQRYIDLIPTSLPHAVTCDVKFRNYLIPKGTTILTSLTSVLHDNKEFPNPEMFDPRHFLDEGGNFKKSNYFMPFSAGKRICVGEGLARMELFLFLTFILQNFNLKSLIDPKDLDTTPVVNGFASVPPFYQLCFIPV
Chain of CYP1A2 (P05177 whole entry): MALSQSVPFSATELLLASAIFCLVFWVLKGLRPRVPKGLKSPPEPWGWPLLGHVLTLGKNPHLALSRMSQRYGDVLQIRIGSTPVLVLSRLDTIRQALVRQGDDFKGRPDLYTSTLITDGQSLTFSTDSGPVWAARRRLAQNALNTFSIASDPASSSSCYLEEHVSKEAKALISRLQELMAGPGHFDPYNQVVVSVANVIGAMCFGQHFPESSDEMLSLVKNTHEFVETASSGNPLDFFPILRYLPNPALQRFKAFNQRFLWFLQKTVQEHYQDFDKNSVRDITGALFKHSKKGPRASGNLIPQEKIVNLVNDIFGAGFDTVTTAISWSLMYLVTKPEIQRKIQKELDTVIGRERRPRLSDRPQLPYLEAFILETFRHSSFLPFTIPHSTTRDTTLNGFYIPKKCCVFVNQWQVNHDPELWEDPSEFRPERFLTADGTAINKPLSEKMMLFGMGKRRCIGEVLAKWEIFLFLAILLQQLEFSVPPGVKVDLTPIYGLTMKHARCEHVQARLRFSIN
Chain of CYP2C8 (P10632 whole entry): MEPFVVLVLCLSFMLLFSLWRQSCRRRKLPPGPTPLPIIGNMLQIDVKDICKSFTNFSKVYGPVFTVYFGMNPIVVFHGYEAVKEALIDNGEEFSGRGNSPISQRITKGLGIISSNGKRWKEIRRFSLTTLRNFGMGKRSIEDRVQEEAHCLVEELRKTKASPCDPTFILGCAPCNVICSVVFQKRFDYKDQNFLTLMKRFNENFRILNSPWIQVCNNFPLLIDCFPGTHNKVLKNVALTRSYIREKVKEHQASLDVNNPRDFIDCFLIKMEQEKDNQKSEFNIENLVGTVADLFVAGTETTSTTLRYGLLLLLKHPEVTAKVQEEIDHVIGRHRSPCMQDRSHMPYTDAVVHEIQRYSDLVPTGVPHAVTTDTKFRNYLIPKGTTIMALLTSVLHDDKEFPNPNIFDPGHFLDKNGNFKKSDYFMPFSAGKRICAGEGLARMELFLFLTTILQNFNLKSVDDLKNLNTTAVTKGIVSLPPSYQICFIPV
Chain of CYP2D6 (P10635 whole entry): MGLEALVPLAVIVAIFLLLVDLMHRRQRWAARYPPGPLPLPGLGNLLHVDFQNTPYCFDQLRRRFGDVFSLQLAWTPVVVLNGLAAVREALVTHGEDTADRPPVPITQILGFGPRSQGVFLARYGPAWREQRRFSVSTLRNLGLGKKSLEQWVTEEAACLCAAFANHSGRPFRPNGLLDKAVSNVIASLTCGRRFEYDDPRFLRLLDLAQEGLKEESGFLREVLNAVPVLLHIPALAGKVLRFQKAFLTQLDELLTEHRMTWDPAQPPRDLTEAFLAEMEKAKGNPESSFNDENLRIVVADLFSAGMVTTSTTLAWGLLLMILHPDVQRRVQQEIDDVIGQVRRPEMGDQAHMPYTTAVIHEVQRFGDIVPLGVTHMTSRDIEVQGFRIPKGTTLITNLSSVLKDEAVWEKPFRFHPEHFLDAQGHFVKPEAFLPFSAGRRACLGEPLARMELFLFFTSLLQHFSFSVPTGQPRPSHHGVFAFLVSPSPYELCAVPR
Chain of CYP2C9 (P11712 whole entry): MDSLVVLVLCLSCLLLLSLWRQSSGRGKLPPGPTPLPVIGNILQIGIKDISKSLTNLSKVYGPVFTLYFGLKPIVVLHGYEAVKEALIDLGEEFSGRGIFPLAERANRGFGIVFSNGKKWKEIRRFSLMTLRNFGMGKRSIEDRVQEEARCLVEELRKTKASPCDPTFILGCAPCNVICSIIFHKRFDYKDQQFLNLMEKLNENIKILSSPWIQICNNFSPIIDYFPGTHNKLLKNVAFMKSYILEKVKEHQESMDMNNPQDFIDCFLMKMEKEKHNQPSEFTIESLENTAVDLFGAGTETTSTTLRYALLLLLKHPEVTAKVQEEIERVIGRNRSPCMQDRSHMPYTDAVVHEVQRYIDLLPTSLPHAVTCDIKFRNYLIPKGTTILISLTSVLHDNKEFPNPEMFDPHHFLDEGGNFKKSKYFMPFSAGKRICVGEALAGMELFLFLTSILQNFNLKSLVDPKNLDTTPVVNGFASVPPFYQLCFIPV

For CNC(=O)c1cc2c(Oc3ccc(NC(=O)C4(C(=O)Nc5ccc(F)cc5)CC4)cc3)ccnc2cc1OC [Compound 1, 1-N′-(4-Fluorophenvl)-1-N-[4-[7-methoxy-6-(methylcarbamovl)quinolin-4-yl]oxyphenyl]cyclopropane-1,1-dicarboxamide], the “AR AUC0-24 (accumulation ratio)” value [1, 2] was 1.92 ± 0.593, the “AR Cmax (accumulation ratio)” value [1, 2] was 2.76 ± 0.609 and the “AR AUC0-24 (accumulation ratio)” value [1, 3] was 3.61 ± 4.09. For the same compound, the “AR Cmax (accumulation ratio)” value [1, 3] was 4.09 ± 5.40, the “AR AUC0-24 (accumulation ratio)” value [1, 4] was 1.33 ± 0.136 and the “AR Cmax (accumulation ratio)” value [1, 4] was 1.30 ± 0.374. For the same compound, the “mean exposure of Compound 1 (Cmax and AUC0-24) in combination with atezolizumab relative to single agent” value ([1]; 40 mg Compound 1 qd + 1200 mg atezolizumab q3w, steady-state, lower in combination) was “approximately 2 fold”, the “AR AUC0-24 (accumulation ratio)” value [1, 5] was 1.46 ± 0.286 and the “AR Cmax (accumulation ratio)” value [1, 5] was 1.27 ± 0.0979. The “AR AUC0-24 (accumulation ratio)” value [1, 6] was 1.88 ± 0.947, the “AR Cmax (accumulation ratio)” value [1, 6] was 1.67 ± 0.636 and the “accumulation at steady state” value ([1]; 20-mg tablet) was less than 2 fold. The “increase of mean exposure (AUC0-24) with dose” value ([1]; PIB 10 mg to 20 mg, Day 1) was “approximately dose proportionally”, the “Mean PK exposure (Cmax and AUC0-24) of 20 mg tablet relative to 20 mg PIB” value ([1]; first dose Day 1, tablet higher) was “approximately 3.7 fold” and the “increase of exposure with dose” value ([1]; first dose, 20 to 80 mg tablets, single agent) was “approximately dose proportional”. For the same compound, the Cmax [1, 7] was 35.7 ± 10.8 ng/mL, the AUC(0-t) [1, 7] was 510 ± 193 ng·h/mL and the Tmax ([1]; 10 mg, 10 mg PIB, First Dose (Day 1), median (min, max), read-out: Tmax) was 1 h. It also gave a Cmax [1, 8] of 95.2 ± 17.8 ng/mL, an AUC(0-t) [1, 8] of 971 ± 398 ng·h/mL and a half-life ([1]; 10 mg, 10 mg PIB, Steady-State (Day 28), mean ± SD, read-out: t1/2 (terminal phase half-life) (converted)) of 19.9 ± 1.3 h. It also gave a Tmax at 28 days ([1]; 10 mg, 10 mg PIB, Steady-State (Day 28), median (min, max)) of 2 h, a Cmax [1, 9] of 91.9 ± 13.4 ng/mL and an AUC(0-t) [1, 9] of 1000 ± 338 ng·h/mL. It also gave a Tmax ([1]; 20 mg, 20 mg PIB, First Dose (Day 1), median (min, max), read-out: Tmax) of 2 h, a Cmax [1, 10] of 330 ± 409 ng/mL and an AUC(0-t) [1, 10] of 3270 ± 4010 ng·h/mL. The half-life ([1]; 20 mg, 20 mg PIB, Steady-State (Day 28), N = 3, mean ± SD, read-out: t1/2 (terminal phase half-life) (converted)) was 21 ± 5.7 h, the Tmax at 28 days ([1]; 20 mg, 20 mg PIB, Steady-State (Day 28), N = 3, median (min, max)) was 2 h and the Cmax [1, 11] was 342 ± 225 ng/mL. The AUC(0-t) [1, 11] was 3680 ± 1550 ng·h/mL, the Tmax ([1]; 20 mg, 20 mg Tablet, First Dose (Day 1), median (min, max), read-out: Tmax) was 6 h and the Cmax [1, 12] was 422 ± 241 ng/mL. It also gave an AUC(0-t) [1, 12] of 5030 ± 2560 ng·h/mL, a half-life ([1]; 20 mg, 20 mg Tablet, Steady-State (Day 28), mean ± SD, read-out: t1/2 (terminal phase half-life) (converted)) of 27.8 ± 4.74 h and a Tmax ([1]; 20 mg, 20 mg Tablet, Steady-State (Day 28), median (min, max), read-out: Tmax) of 1 h. For the same compound, the half-life at 28 days ([1]; 20 mg, PIB 10 and 20 mg, steady-state Day 28, read-out: mean terminal half-life (t1/2) (converted)) was roughly 20 h, the Cmax [1, 13] was 521 ± 202 ng/mL and the AUC(0-t) [1, 13] was 6350 ± 1540 ng·h/mL. It also gave a Tmax ([1]; 40 mg, 40 mg Tablet, First Dose (Day 1), median (min, max), read-out: Tmax) of 5 h, a Cmax [1, 14] of 656 ± 242 ng/mL and an AUC(0-t) [1, 14] of 8190 ± 1560 ng·h/mL. It also gave a half-life ([1]; 40 mg, 40 mg Tablet, Steady-State (Day 28), mean ± SD, read-out: t1/2 (terminal phase half-life) (converted)) of 24.2 ± 5.01 h, a Tmax ([1]; 40 mg, 40 mg Tablet, Steady-State (Day 28), median (min, max), read-out: Tmax) of 3 h and a Cmax [1, 15] of 935 ± 348 ng/mL. For the same compound, the AUC(0-t) [1, 15] was 11000 ± 6290 ng·h/mL, the Tmax ([1]; 80 mg, 80 mg Tablet, First Dose (Day 1), median (min, max), read-out: Tmax) was 2 h and the Cmax [1, 16] was 1440 ± 454 ng/mL. The AUC(0-t) [1, 16] was 16900 ± 3120 ng·h/mL, the half-life ([1]; 80 mg, 80 mg Tablet, Steady-State (Day 28), mean ± SD, read-out: t1/2 (terminal phase half-life) (converted)) was 19.3 ± 3.35 h and the Tmax ([1]; 80 mg, 80 mg Tablet, Steady-State (Day 28), median (min, max), read-out: Tmax) was 3 h. For the same compound, the Tmax ([1]; first dose, tablets 20 to 80 mg, read-out: median Tmax) was 2 to 6 h, the half-life ([1]; tablet (as of April 2021), read-out: terminal half-life at steady state) was 24 to 28 h and the half-life at 28 days ([1]; tablets, steady-state, read-out: mean t1/2) was 19 to 28 h. For the same compound, the “exposure (AUC0-24) of 20-mg tablet higher than 20 mg PIB” value ([1]; steady-state Day 28) was “approximately 50%”, the “accumulation in exposure (Cmax and AUC0-24) at steady-state” value ([1]; tablets, after 28 days of daily dosing) was less than 2 fold and the “mean apparent CL/F” value ([1]; tablets, steady-state) was “approximately 5 L/hr”. For the same compound, the Ki (CYP2C8) was 1.27 µM, the Ki (CYP2C9) was 7.11 µM and the Ki (CYP3A4) was 25.2 µM. The time-dependent inhibition (CYP3A4; testosterone as probe substrate) was “time-dependent inhibitor”, the IC50 (CYP 2B6) was greater than 33 µM and the IC50 (CYP1A2) was greater than 33 µM. For the same compound, the IC50 (CYP2D6) was greater than 33 µM, the Ki (CYP2C19) was 1.36 µM and the “average vessel number (CD31 staining)” value (MC38 tumor; 30 mg/kg PO qd 5 days, vehicle 26.9) was 17.6. For the same compound, the “presence of tumor microvessels” value (MC38 tumor; 3, 10, 30 mg/kg PO qd 5 days) was “Dose-dependent decreases”.
